# Laboratory results as given in patent publication US20230081426A1, “COMPOUNDS AND METHODS FOR KRAS MODULATION AND INDICATIONS THEREFOR” (Plexxikon Inc., priority 2020, published 2023).
# Tests used:
# [1] = biological target: T1, G12C-mutant human KRAS (amino acid residues 1-188) (Homo sapiens, UniProt P01116, G12C); assay: KRAS Binding Disruption Assay (AlphaScreen; biotinylated KRpep-2d analogue or RAF1-RBD), G12C; conditions: geometric mean, read-out: KRAS GMean IC50 (uM) MUTATION: G12C
# T1 construct: G12D or G12C-mutant human KRAS (amino acid residues 1-188) with FLAG tag; made in house; host or cells: E. coli
# Procedure: Compound binding disrupts the interaction of KRpep-2d or RAF1-RBD with KRAS, leading to a decrease in Alpha signal.
# All assay components were prepared in 20 mM HEPES (pH 7.5), 100 mM NaCl, 5 mM MgCl2, 0.01% Tween-20, and 0.01% BSA. Biotinylated analogues of KRpep-2d were custom synthesized. The binding disruption assays were performed using 5-20 nM of mutant KRAS and 5-20 nM of either biotinylated KRpep-2d analogue or RAF1-RBD. 19 μL of KRAS protein and 4 μL of biotinylated KRpep-2d or RAF1-RBD were added to the wells of a 384-well plate containing 1 μL of various concentrations of test compound or DMSO vehicle. 16 wells containing KRAS, biotinylated KRpep-2d or RAF1-RBD, and 5% DMSO served as high controls. 16 wells containing KRAS only and 5% DMSO served as low controls. Binding reactions were incubated for 1 hour at 25° C., then Anti-Flag Acceptor and Streptavidin Donor Alpha beads were added at a final concentration of 10 μg/mL for an additional hour at room temperature. Alpha signal was read out on a Perkin Elmer Envision HTS instrument. The percentage inhibition at individual compound concentrations relative to high and low controls was calculated. The data were analyzed by using nonlinear regression to generate IC50 values.
# [2] = biological target: T2, G12D-mutant human KRAS (amino acid residues 1-188) (Homo sapiens, UniProt P01116, G12D); assay: KRAS Binding Disruption Assay (AlphaScreen; biotinylated KRpep-2d analogue or RAF1-RBD), G12D; conditions: KRAS G12D; geometric mean; read-out: KRAS GMean IC50 (uM) MUTATION: G12D
# T2 construct: G12D or G12C-mutant human KRAS (amino acid residues 1-188) with FLAG tag; made in house; host or cells: E. coli
# Summary of the method: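 Mutant KRAS (5-20 nM) incubated 1 h at 25° C with test compound and 5-20 nM biotinylated KRpep-2d analogue or RAF1-RBD in 20 mM HEPES pH 7.5, 100 mM NaCl, 5 mM MgCl2, 0.01% Tween-20, 0.01% BSA.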
# T2 sequence (P01116 1-188 isoform P01116-2 G12D): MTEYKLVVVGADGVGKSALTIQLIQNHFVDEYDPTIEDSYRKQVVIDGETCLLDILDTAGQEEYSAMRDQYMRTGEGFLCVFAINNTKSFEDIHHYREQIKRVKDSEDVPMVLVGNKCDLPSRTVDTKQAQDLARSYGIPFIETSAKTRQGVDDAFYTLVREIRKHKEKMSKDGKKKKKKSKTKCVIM
# T1 sequence (P01116 1-188 isoform P01116-2 G12C): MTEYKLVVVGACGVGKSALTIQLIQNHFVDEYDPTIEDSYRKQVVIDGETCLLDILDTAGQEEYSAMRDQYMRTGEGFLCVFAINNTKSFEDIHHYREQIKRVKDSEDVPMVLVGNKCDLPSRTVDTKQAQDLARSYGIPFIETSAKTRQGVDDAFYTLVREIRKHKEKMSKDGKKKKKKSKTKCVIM
Compound,IC50 [1] [µM],IC50 [2] [µM]
"COC1CN(c2nc(N3C[C@H]4CC[C@@H](C3)N4)c3ccc(-c4cc(O)cc5ccccc45)c(F)c3n2)C1 [P-0658, 4-(4-((1R,5S)-3,8-diazabicyclo[3.2.1]octan-3-yl)-8-fluoro-2-(3-methoxyazetidin-1-yl)quinazolin-7-yl)naphthalen-2-ol]",100 to 1000,0.0001 to 10
"CN1C[C@H](O)C[C@H]1COc1nc(N2C[C@H]3CC[C@@H](C2)N3)c2ccc(-c3cc(O)cc4ccccc34)c(F)c2n1 [P-0659, (3R,5S)-5-(((4-((1R,5S)-3,8-diazabicyclo[3.2.1]octan-3-yl)-8-fluoro-7-(3-hydroxynaphthalen-1-yl)quinazolin-2-yl)oxy)methyl)-1-methylpyrrolidin-3-ol]",0.0001 to 10,0.0001 to 10
"NC(=O)N1[C@@H]2CC[C@H]1CN(c1nc(OCC34CCCN3CCC4)nc3c(F)c(-c4cc(O)cc5ccccc45)ccc13)C2 [P-0660, (1R,5S)-3-(8-fluoro-7-(3-hydroxynaphthalen-1-yl)-2-((tetrahydro-1H-pyrrolizin-7a(5H)-yl)methoxy)quinazolin-4-yl)-3,8-diazabicyclo[3.2.1]octane-8-carboxamide]",0.0001 to 10,0.0001 to 10
"NS(=O)(=O)N1[C@@H]2CC[C@H]1CN(c1nc(OCC34CCCN3CCC4)nc3c(F)c(-c4cc(O)cc5ccccc45)ccc13)C2 [P-0662, (1R,5S)-3-(8-fluoro-7-(3-hydroxynaphthalen-1-yl)-2-((tetrahydro-1H-pyrrolizin-7a(5H)-yl)methoxy)quinazolin-4-yl)-3,8-diazabicyclo[3.2.1]octane-8-sulfonamide]",0.0001 to 10,0.0001 to 10
"CN1CCC[C@H]1COc1nc(N2C[C@H]3CC[C@@H](C2)N3S(N)(=O)=O)c2ccc(-c3cc(O)cc4ccccc34)c(F)c2n1 [P-0663, (1R,5S)-3-(8-fluoro-7-(3-hydroxynaphthalen-1-yl)-2-(((S)-1-methylpyrrolidin-2-yl)methoxy)quinazolin-4-yl)-3,8-diazabicyclo[3.2.1]octane-8-sulfonamide]",0.0001 to 10,0.0001 to 10
"N#Cc1cccc2[nH]cc(-c3ccc4c(N5C[C@H]6CC[C@@H](C5)N6)nc(OCC56CCCN5CCC6)nc4c3F)c12 [P-0666, 3-(4-((1R,5S)-3,8-diazabicyclo[3.2.1]octan-3-yl)-8-fluoro-2-((tetrahydro-1H-pyrrolizin-7a(5H)-yl)methoxy)quinazolin-7-yl)-1H-indole-4-carbonitrile]",0.0001 to 10,0.0001 to 10
"CCN1CCC[C@H]1COc1nc(N2C[C@H]3CC[C@@H](C2)N3)c2ccc(-c3cc(O)cc4ccccc34)c(F)c2n1 [P-0667, 4-(4-((1R,5S)-3,8-diazabicyclo[3.2.1]octan-3-yl)-2-(((S)-1-ethylpyrrolidin-2-yl)methoxy)-8-fluoroquinazolin-7-yl)naphthalen-2-ol]",0.0001 to 10,0.0001 to 10
"Oc1cc(-c2ccc3c(N4C[C@H]5CC[C@@H](C4)N5)nc(CNC4CC(O)C4)nc3c2)c2ccccc2c1 (stereo partly drawn) [P-0670, 4-(4-((1R,5S)-3,8-diazabicyclo[3.2.1]octan-3-yl)-2-(((3-hydroxycyclobutyl)amino)methyl)quin-azolin-7-yl)naphthalen-2-ol]",100 to 1000,0.0001 to 10
"Oc1cc(-c2ccc3c(N4C[C@H]5CC[C@@H](C4)N5)nc(CN[C@H]4CCOC4)nc3c2)c2ccccc2c1 [P-0671, 4-(4-((1R,5S)-3,8-diazabicyclo[3.2.1]octan-3-yl)-2-((((S)-tetrahydrofuran-3-yl)amino)methyl)quinazolin-7-yl)naphthalen-2-ol]",10 to 100,0.0001 to 10
"Oc1cc(-c2ccc3c(N4CC5CCC(C4)N5)nc(CN[C@@H]4CCC[C@H]4O)nc3c2)c2ccccc2c1 [P-0672, 4-(4-((1R,5S)-3,8-diazabicyclo[3.2.1]octan-3-yl)-2-((((1R,2R)-2-hydroxycyclopentyl)amino)methyl)quin-azolin-7-yl)naphthalen-2-ol]",10 to 100,0.0001 to 10
"Oc1cc(-c2ccc3c(N4C[C@H]5CC[C@@H](C4)N5)nc(CNC4CC4)nc3c2)c2ccccc2c1 [P-0673, 4-(4-((1R,5S)-3,8-diazabicyclo[3.2.1]octan-3-yl)-2-((cyclopropylamino)methyl)quinazolin-7-yl)naphthalen-2-ol]",10 to 100,0.0001 to 10
"NCCCN1CCC[C@H]1COc1nc(N2C[C@H]3CC[C@@H](C2)N3)c2ccc(-c3cc(O)cc4ccccc34)c(F)c2n1 [P-0675, 4-(2-(((S)-1-(3-aminopropyl)pyrrolidin-2-yl)methoxy)-4-((1R,5S)-3,8-diazabicyclo[3.2.1]octan-3-yl)-8-fluoroquinazolin-7-yl)naphthalen-2-ol]",0.0001 to 10,0.0001 to 10
"O=C(NCCCN1CCC[C@H]1COc1nc(N2C[C@H]3CC[C@@H](C2)N3)c2ccc(-c3cc(O)cc4ccccc34)c(F)c2n1)OCc1ccccc1 [P-0676, benzyl (3-((S)-2-(((4-((1R,5S)-3,8-diazabicyclo[3.2.1]octan-3-yl)-8-fluoro-7-(3-hydroxynaphthalen-1-yl)quinazolin-2-yl)oxy)methyl)pyrrolidin-1-yl)propyl)carbamate]",10 to 100,0.0001 to 10
"O=C(OCc1ccccc1)N1CCC[C@H]1COc1nc(N2C[C@H]3CC[C@@H](C2)N3)c2ccc(-c3cc(O)cc4ccccc34)c(F)c2n1 [P-0677, benzyl (S)-2-(((4-((1R,5S)-3,8-diazabicyclo[3.2.1]octan-3-yl)-8-fluoro-7-(3-hydroxynaphthalen-1-yl)quinazolin-2-yl)oxy)methyl)pyrrolidine-1-carboxylate]",10 to 100,0.0001 to 10
"Fc1ccc2[nH]cc(-c3ccc4c(N5C[C@H]6CC[C@@H](C5)N6)nc(OCC56CCCN5CCC6)nc4c3F)c2c1Cl [P-0678, 4-((1R,5S)-3,8-diazabicyclo[3.2.1]octan-3-yl)-7-(4-chloro-5-fluoro-1H-indol-3-yl)-8-fluoro-2-((tetrahydro-1H-pyrrolizin-7a(5H)-yl)methoxy)quinazoline]",0.0001 to 10,0.0001 to 10
"Fc1cc2c(N3C[C@H]4CC[C@@H](C3)N4)nc(OCC34CCCN3CCC4)nc2c(F)c1-c1c[nH]c2ccc(F)c(Cl)c12 [P-0679, 4-((1R,5S)-3,8-diazabicyclo[3.2.1]octan-3-yl)-7-(4-chloro-5-fluoro-1H-indol-3-yl)-6,8-difluoro-2-((tetrahydro-1H-pyrrolizin-7a(5H)-yl)methoxy)quinazoline]",0.0001 to 10,0.0001 to 10
"O=C1CCC2(CN(c3nc(N4C[C@H]5CC[C@@H](C4)N5)c4ccc(-c5cc(O)cc6ccccc56)c(F)c4n3)C2)N1 [P-0680, 2-(4-((1R,5S)-3,8-diazabicyclo[3.2.1]octan-3-yl)-8-fluoro-7-(3-hydroxynaphthalen-1-yl)quinazolin-2-yl)-2,5-diazaspiro[3.4]octan-6-one]",100 to 1000,0.0001 to 10
"Oc1cc(-c2ccc3c(N4C[C@H]5CC[C@@H](C4)N5)nc(NCC4(O)CCC4)nc3c2F)c2ccccc2c1 [P-0681, 4-(4-((1R,5S)-3,8-diazabicyclo[3.2.1]octan-3-yl)-8-fluoro-2-(((1-hydroxycyclobutyl)methyl)amino)quin-azolin-7-yl)naphthalen-2-ol]",100 to 1000,0.0001 to 10
"Oc1cc(-c2ccc3c(N4C[C@H]5CC[C@@H](C4)N5)nc(N4CC5(CCCN5)C4)nc3c2F)c2ccccc2c1 [P-0682, 4-(4-((1R,5S)-3,8-diazabicyclo[3.2.1]octan-3-yl)-8-fluoro-2-(2,5-diazaspiro[3.4]octan-2-yl)quinazolin-7-yl)naphthalen-2-ol]",10 to 100,0.0001 to 10
"CC(C)(O)C1CN(c2nc(N3C[C@H]4CC[C@@H](C3)N4)c3ccc(-c4cc(O)cc5ccccc45)c(F)c3n2)C1 [P-0683, 4-(4-((1R,5S)-3,8-diazabicyclo[3.2.1]octan-3-yl)-8-fluoro-2-(3-(2-hydroxypropan-2-yl)azetidin-1-yl)quinazolin-7-yl)naphthalen-2-ol]",100 to 1000,0.0001 to 10
"CN1CCN(c2nc(N3C[C@H]4CC[C@@H](C3)N4)c3ccc(-c4cc(O)cc5ccccc45)c(F)c3n2)CC1 [P-0684, 4-(4-((1R,5S)-3,8-diazabicyclo[3.2.1]octan-3-yl)-8-fluoro-2-(4-methylpiperazin-1-yl)quinazolin-7-yl)naphthalen-2-ol]",100 to 1000,0.0001 to 10
"Oc1cc(-c2ccc3c(N4C[C@H]5CC[C@@H](C4)N5)nc(N4C[C@@H](O)[C@H](O)C4)nc3c2F)c2ccccc2c1 [P-0685, (3R,4R)-1-(4-((1R,5S)-3,8-diazabicyclo[3.2.1]octan-3-yl)-8-fluoro-7-(3-hydroxynaphthalen-1-yl)quinazolin-2-yl)pyrrolidine-3,4-diol]",10 to 100,0.0001 to 10
